Experimental data as given in US7071163B2, “Compounds for targeting hepatocytes in vivo” (Mirus Bio Corporation, priority 2002, dated 2006).
Peptide text beside a SMILES is read from it. * marks the point of attachment. Biotin = O=C1N[C@H]2[C@H](CS[C@H]2CCCCC(=O)*)N1; PEG4 = NCCOCCOCCOCCOCCC(=O)O

Experiments:
[1] = system: hepatocytes; assay: Delivery of Cy3-streptavidin by biotinylated synthetic p17 peptide, monkey; type: in vivo, Cyno monkey; conditions: b107 says ratio 18:1, method b106 13:1, 10 min
Experimental: A. Delivery of streptavidin (SA) by a biotinylated p17 peptide (MC893). […] Purified peptide was mixed with 250 μg of Cy3-labled SA (Jackson ImmunoResearch Laboratories, Inc. West Grove, Pa.) at peptide to SA molar ratios of 1.2:1, 9:1, 18:1, 45: 1, and 90:1 in a solution containing 25 mM HEPES, 125 mM NaCl, pH 8. The mixtures were injected into mice via the tail vein (400 μl injection volume). For monkey injection, 3.3 mg MC893 peptide was mixed with 3 mg of Cy3-SA, a 13:1 molar ratio, and purified using a G50 column. The sample was recovered in 12 ml 25 mM HEPES, 125 mM NaCl, pH 8 and slowly injected into a Cyno monkey via a subcutaneous vein in the arm. All animals were sacrificed 10 min after injection and liver samples were excised and frozen tissue sections prepared and placed onto microscopic slides. Air dried tissue sections were fixed and counterstained with Alexa 488 phalloidin and To-Pro-3 as previously described and analyzed by confocal microcopy.

[2] = system: hepatocytes; assay: Delivery of Cy3-streptavidin by biotinylated synthetic p17 peptide, mouse; conditions: peptide to SA molar ratio of 18:1, 10 min
Experimental: Purified peptide was mixed with 250 μg of Cy3-labled SA (Jackson ImmunoResearch Laboratories, Inc. West Grove, Pa.) at peptide to SA molar ratios of 1.2:1, 9:1, 18:1, 45: 1, and 90:1 in a solution containing 25 mM HEPES, 125 mM NaCl, pH 8. The mixtures were injected into mice via the tail vein (400 μl injection volume). […] All animals were sacrificed 10 min after injection and liver samples were excised and frozen tissue sections prepared and placed onto microscopic slides. Air dried tissue sections were fixed and counterstained with Alexa 488 phalloidin and To-Pro-3 as previously described and analyzed by confocal microcopy.
The ability of biotin-peptide conjugates to target Cy3-labeled streptavidin to hepatocytes in mice is determined by confocal fluorescent microscopy as described above.

[3] = system: mouse hepatocytes; assay: Delivery of biotinylated Cy3-dextran and Cy3-siRNA by MC892-SA conjugate; type: in vivo
Experimental: B. Delivery of biotinylated cargo by SA-p17 peptide conjugates. […] 2 mg SA was dissolved in 200 μl dH2O and added to a 200 μl 100 mM sodium phosphate/300 mM NaCl/2 mM EDTA, pH 7.2. A 10 mole equivalent of SPDP (Pierce) dissolved in DMF at 10 mg/ml was then added to the SA solution and mixed at RT for 1 h. The SPDP-modified streptavidin was then purified using a G-25 Sephadex column. It was determined that each SA molecule contained an average of 1.8 PDP groups based on a pyridine-2-thione assay. The SA-PDP conjugate was added to MC892 at a 1:18 molar ratio and incubated for 24 h at 4° C. The MC892-SA conjugates were purified on a G-25 Sephadex column. The sample was then freeze-dried and dissolved in a solution of 25 mM MES, 125 mM NaCl, pH 6.5 at 3 mg/ml.
One mg of NHS-PEG4-Biotin suspended in dry DMF at 10 mg/ml was added to 30 mg amino dextran (Molecular Probes, 70 kDa, 17.9 mole amine per polymer) that was dissolved in 0.1 M NaHCO3 at 10 mg/ml (molar ratio of 4.5 to 1). This solution was mixed overnight at room temperature, transferred into cellulose tubing (Fisher, 12–14,000 MWCO) and dialyzed once against 20 L 20 mM NH4Cl followed twice against 5 L dH20. The dialyzed sample was lyophilized. The sample was then dissolved in dH2O at 30 mg/ml. Each dextran polymer was estimated to contain an average of 0.5 biotin group. This biotinylated dextran was fluorescently labeled with Cy3-OSu (Amersham) at a weight ratio of 1:0.074. Excess free dye was removed using a Sephadex G-50 column. Labeled dextran was eluted in 25 mM NH4CO3. The sample was freeze dried and resuspended at 7.5 mg/ml in 25 mM HEPES/125 mM NaCl, pH 8.0. Biotinylated siRNA (5′-biotin-LC-siRNA, Dharmacon) was labeled with Cy3 using Cy3 LabelIT (Mirus Corp) according to manufacturer's instructions. […]
Liver samples were removed 10 min after injection, placed into OCT freezing medium and snap frozen in liquid nitrogen. […] Processed slides were mounted in Vectorshield (Vector Laboratories, Burlingame, Calif.) and analyzed using a Zeiss LSM510 confocal microscope.

[4] = system: monkey hepatocytes; assay: Targeting of recombinant p17 proteins to monkey hepatocytes; type: in vivo; conditions: 500 μg via subcutaneous vein in arm, 1 h
Experimental: 6. Targeting of recombinant p17 proteins to monkey hepatocytes. Recombinant full-length p17 proteins were prepared as previously described. Purified p17 proteins, 500 μg of p17-K211 or p17-E211 in 33 ml of PBS, were slowly injected into monkeys via subcutaneous vein in arm. Liver samples were excised 1 h after injection, submerged in O.C.T. freezing medium and snap frozen in liquid nitrogen. Frozen liver sections (5–7 μm) were prepared using a cryostat and air-dried. Immunofluorescence detection for p17 proteins was performed as described above. Liver sections from an uninjected monkey were used as a control. Images represent an area of 75 μm^2 from a flattened composite of 8 consecutive confocal optical sections (each 0.4 μm thick). P17 is seen in black, cell nuclei in gray, F-actin in gray near basolateral membranes and in near bile capillary membranes.

C[C@H](NC(=O)[C@H](CCC(=O)O)NC(=O)[C@H](CC(=O)O)NC(=O)[C@H](CCCNC(=N)N)NC(=O)[C@H](Cc1ccccc1)NC(=O)CNC(=O)[C@H](CCCCN)NC(=O)[C@@H](NC(=O)[C@H](CCC(=O)O)NC(=O)[C@H](CC(=O)O)NC(=O)[C@H](CCCNC(=N)N)NC(=O)[C@H](Cc1c[nH]c2ccccc12)NC(=O)[C@H](CCC(N)=O)NC(=O)[C@H](CCCCN)NC(=O)[C@@H](NC(=O)[C@H](CC(N)=O)NC(=O)[C@@H](NC(=O)[C@H](C)NC(=O)[C@H](CC(N)=O)NC(=O)[C@@H](NC(=O)[C@H](CO)NC(=O)[C@H](CO)NC(=O)[C@H](CCC(=O)O)NC(=O)[C@H](CC(N)=O)NC(=O)[C@H](CCCCN)NC(=O)CCOCCOCCOCCOCCNC(=O)CCOCCOCCOCCOCCNC(=O)CCCC[C@@H]1SC[C@@H]2NC(=O)N[C@@H]21)[C@@H](C)O)[C@@H](C)O)[C@@H](C)O)[C@@H](C)O)C(=O)N[C@@H](CCCCN)C(=O)N[C@@H](CCCNC(=N)N)C(=O)N[C@@H](Cc1ccccc1)C(=O)N[C@@H](CCCCN)C(=O)N[C@@H](CC(N)=O)C(=O)N[C@H](C(=O)N[C@@H](C)C(=O)NCC(=O)O)[C@@H](C)O [MC893] ({Biotin-PEG4-PEG4}-KNESSTNATNTKQWRDETKGFRDEAKRFKNTAG-OH)
targeting of Cy3-SA to hepatocytes [1]: efficiently targeted Cy3-SA to hepatocytes | targeting of Cy3-SA to hepatocytes [2]: efficiently targeted Cy3-SA to hepatocytes

Cys-PEG4-Lys-Asn-Glu-Ser-Ser-Thr-Asn-Ala-Thr-Asn-Thr-Lys-Gln-Trp-Arg-Asp-Glu-Thr-Lys-Gly-Phe-Arg-Asp-Glu-Ala-Lys211-Arg-Phe-Lys-Asn-Thr-Ala-Gly [MC892]
Cy3-dextran signal in hepatocytes ([3]; MC892-SA with biotinylated Cy3-dextran, 20 min (not shown)): internalized Cy3-dextran signals found in clusters near cell nuclei | Cy3-dextran signal in hepatocytes ([3]; MC892-SA with biotinylated Cy3-labeled 70 kDa dextran, 10 min after injection): high levels of Cy3-dextran signal was observed inside hepatocytes | targeting of Cy3-siRNA to liver ([3]; MC892-SA with biotinylated Cy3-siRNA, 10 min): successful targeting of siRNA to the liver

B1: p17-K211: bacterially expressed His-tagged full-length wild-type T7 p17 tail fiber protein (SEQ ID 4) (protein)
chain: MGSSHHHHHHSSGLVPRGSHMANVIKTVLTYQLDGSNRDFNIPFEYLARKFVVVTLIGVDRKVLTINTDYRFATRTTISLTKAWGPADGYTTIELRRVTSTTDRLVDFTDGSILRAYDLNVAQIQTMHVAEEARDLTTDTIGVNNDGHLDARGRRIVNLANAVDDRDAVPFGQLKTMNQNSWQARNEALQFRNEAETFRNQAEGFKNESSTNATNTKQWRDETKGFRDEAKRFKNTAGQYATSAGNSASAAHQSEVNAENSATASANSAHLAEQQADRAEREADKLENYNGLAGAIDKVDGTNVYWKGNIHANGRLYMTTNGFDCGQYQQFFGGVTNRYSVMEWGDENGWLMYVQRREWTTAIGGNIQLVVNGQIITQGGAMTGQLKLQNGHVLQLESASDKAHYILSKDGNRNNWYIGRGSDNNNDCTFHSYVHGTTLTLKQDYAVVNKHFHVGQAVVATDGNIQGTKWGGKWLDAYLRDSFVAKSKAWTQVWSGSAGGGVSVTVSQDLRFRNIWIKCANNSWNFFRTGPDGIYFIASDGGWLRFQIHSNGLGFKNIADSRSVPNAIMVENE
modifications: His tag; Bacteriophage T7
liver localization of p17 protein in monkey [4]: efficiently targets to monkey hepatocytes
